Experimental data as given in patent publication US6706663B2, “Herbicidal 3-heterocyclic substituted benzisothiazole and benzisoxazole compounds” (Wyeth, priority 2000, dated 2004).

What was measured:
[1] = test system: ABUTH (Abutilon theophrasti); assay: Postemergence herbicidal evaluation; format: in vivo, Medic.
In short: (§1)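 Seedlings grown for about two weeks were sprayed postemergence and then kept under standard greenhouse care. Injury was rated visually 4–5 weeks after treatment on a 0–9 scale against untreated controls, and ratings from repeat tests were averaged.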

[2] = test system: AMBEL (Ambrosia artemisifolia); assay: Postemergence herbicidal evaluation; format: in vivo, L.
In short: as §1

[3] = test system: CASOB (Cassia obtusifolia); assay: Postemergence herbicidal evaluation; format: in vivo, L.
In short: as §1

[4] = test system: CHEAL (Chenopodium album); assay: Postemergence herbicidal evaluation; format: in vivo, L.
In short: as §1

[5] = test system: GALAP (Galium aparine); assay: Postemergence herbicidal evaluation; format: in vivo
In short: as §1

[6] = test system: IPOHE (Ipomoea hederacea); assay: Postemergence herbicidal evaluation; format: in vivo, (L.) Jacq.
In short: as §1

[7] = test system: SETVI (Setaria viridis); assay: Postemergence herbicidal evaluation; format: in vivo, (L.) Beau
In short: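 Seedlings grown about two weeks were sprayed with compound in 50/50 acetone/water containing 0.5% TWEEN 20, at about 0.0040 to 1.000 kg/ha via nozzle at 40 psi. Plants were kept under greenhouse conditions and visually rated on a 0-9 scale versus control four to five weeks after treatment; replicate tests averaged.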

[8] = test system: ORYSAT (Rice, Tebonnet); assay: Postemergence herbicidal evaluation; format: in vivo, Oryza sativa, (L.) Tebonnet
In short: as §1

[9] = test system: TRZAWR (Wheat, Winter, cv Riband); assay: Postemergence herbicidal evaluation; format: in vivo, Triticum aestivum
In short: as §1

[10] = test system: AMBEL (Ambrosia artemisifolia); assay: Preemergence herbicidal evaluation; format: in vivo, L.; conditions: preemergence, rated 4-5 weeks after treatment
In short: (§2)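 Each species was sown separately in potting soil over roughly one inch of soil, and the surface sprayed with compound dissolved in aqueous acetone. Assessment used a 0–9 visual scale against a control after four to five weeks.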

[11] = test system: CASOB (Cassia obtusifolia); assay: Preemergence herbicidal evaluation; format: in vivo, L.; conditions: preemergence, rated 4-5 weeks after treatment
In short: as §2

[12] = test system: CHEAL (Chenopodium album); assay: Preemergence herbicidal evaluation; format: in vivo, L.; conditions: preemergence, rated 4-5 weeks after treatment
In short: as §2

[13] = test system: GALAP (Galium aparine); assay: Preemergence herbicidal evaluation; format: in vivo; conditions: preemergence, rated 4-5 weeks after treatment
In short: as §2

[14] = test system: ECHCG (Echinochloa crus-galli); assay: Preemergence herbicidal evaluation; format: in vivo, (L.) Beau; conditions: preemergence, rated 4-5 weeks after treatment
In short: as §2

[15] = test system: SETVI (Setaria viridis); assay: Preemergence herbicidal evaluation; format: in vivo, (L.) Beau; conditions: preemergence, rated 4-5 weeks after treatment
In short: as §2

[16] = test system: ORYSAT (Rice, Tebonnet); assay: Preemergence herbicidal evaluation; format: in vivo, Oryza sativa, (L.) Tebonnet; conditions: preemergence, rated 4-5 weeks after treatment
[17] = test system: CYPIR (Cyperus iria); assay: Flooded paddy, preemergence weed control; format: in vivo; conditions: rated 3-4 weeks after treatment, 0-9 rating scale
In short: (§3)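 In this preemergence paddy assay, weed seeds or organs are sown at up to 0.5 cm in silt loam and covered by 1.5–3 cm of water for the full test period. After treatment the pots are kept in a greenhouse, and herbicidal effect is rated 0-9 visually against a control.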

[18] = test system: CYPSE (Cyperus serotinus); assay: Flooded paddy, preemergence weed control; format: in vivo, Rottb.; conditions: rated 3-4 weeks after treatment, 0-9 rating scale
In short: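 Herbicidal effect was scored visually on a 0–9 scale against an untreated control 3–4 weeks after treatment. Compounds were applied preemergence as 50/50 v/v aqueous/acetone mixtures into flood water (1.5–3 cm deep over silt loam), at roughly 0.0080 to 0.1250 kg/ha active ingredient.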

[19] = test system: MOOVA (Monochoria vaginalis); assay: Flooded paddy, preemergence weed control; format: in vivo, Presl.; conditions: rated 3-4 weeks after treatment, 0-9 rating scale
In short: as §3

COC(=O)C(C)Oc1ccsc1-c1nsc2ccc(-n3c(=O)cc(C(F)(F)F)n(C)c3=O)cc12 (stereo not drawn) [Compound 23, methyl 2-[(2-[5-[3,6-dihydro-3-methyl-2,6-dioxo-4-(trifluoromethyl)-1(2H)-pyrimidinyl]-1,2-benzisothiazol-3-yl]-3-thienyl]oxy]propionate]
9.0: Postemergence herbicidal rating, ABUTH ([1]; rate 0.0320 kg/ha) | Postemergence herbicidal rating, ABUTH ([1]; rate 0.0620 kg/ha) | Postemergence herbicidal rating, ABUTH ([1]; rate 0.1250 kg/ha) | Postemergence herbicidal rating, AMBEL ([2]; rate 0.1250 kg/ha) | Postemergence herbicidal rating, IPOHE ([6]; rate 0.1250 kg/ha) | AMBEL preemergence herbicidal rating ([10]; Rate 0.1250 kg/ha) | AMBEL preemergence herbicidal rating ([10]; Rate 0.2500 kg/ha) | CHEAL preemergence herbicidal rating ([12]; Rate 0.0620 kg/ha) | herbicidal rating, CYPIR ([17]; rate 0.0320 kg/ha) | herbicidal rating, CYPIR ([17]; rate 0.1250 kg/ha) | herbicidal rating, CYPSE ([18]; rate 0.1250 kg/ha) | herbicidal rating, MOOVA ([19]; rate 0.0320 kg/ha) | herbicidal rating, MOOVA ([19]; rate 0.1250 kg/ha)
5.0: Postemergence herbicidal rating, IPOHE ([6]; rate 0.0620 kg/ha) | Postemergence herbicidal rating, ORYSAT ([8]; rate 0.1250 kg/ha) | Postemergence herbicidal rating, TRZAWR ([9]; rate 0.1250 kg/ha)
0.0: Postemergence herbicidal rating, CASOB ([3]; rate 0.0320 kg/ha) | Postemergence herbicidal rating, CASOB ([3]; rate 0.0620 kg/ha) | AMBEL preemergence herbicidal rating ([10]; Rate 0.0620 kg/ha) | CASOB preemergence herbicidal rating ([11]; Rate 0.0620 kg/ha) | CHEAL preemergence herbicidal rating ([12]; Rate 0.1250 kg/ha) | GALAP preemergence herbicidal rating ([13]; Rate 0.0620 kg/ha) | GALAP preemergence herbicidal rating ([13]; Rate 0.1250 kg/ha) | ECHCG preemergence herbicidal rating ([14]; Rate 0.0620 kg/ha) | ECHCG preemergence herbicidal rating ([14]; Rate 0.1250 kg/ha) | SETVI preemergence herbicidal rating ([15]; Rate 0.0620 kg/ha) | SETVI preemergence herbicidal rating ([15]; Rate 0.1250 kg/ha) | ORYSAT preemergence herbicidal rating ([16]; Rate 0.0620 kg/ha) | ORYSAT preemergence herbicidal rating ([16]; Rate 0.1250 kg/ha) | ORYSAT preemergence herbicidal rating ([16]; Rate 0.2500 kg/ha) | herbicidal rating, CYPSE ([18]; rate 0.0320 kg/ha)
2.0: Postemergence herbicidal rating, AMBEL ([2]; rate 0.0320 kg/ha) | Postemergence herbicidal rating, CASOB ([3]; rate 0.1250 kg/ha) | Postemergence herbicidal rating, CHEAL ([4]; rate 0.0320 kg/ha) | Postemergence herbicidal rating, GALAP ([5]; rate 0.0620 kg/ha) | Postemergence herbicidal rating, GALAP ([5]; rate 0.1250 kg/ha)
4.0: Postemergence herbicidal rating, CHEAL ([4]; rate 0.0620 kg/ha) | CHEAL preemergence herbicidal rating ([12]; Rate 0.2500 kg/ha)
2.5: Postemergence herbicidal rating, ORYSAT ([8]; rate 0.0320 kg/ha) | Postemergence herbicidal rating, TRZAWR ([9]; rate 0.0320 kg/ha)
7.0: Postemergence herbicidal rating, SETVI ([7]; rate 0.1250 kg/ha)
1.0: Postemergence herbicidal rating, GALAP ([5]; rate 0.0320 kg/ha) | Postemergence herbicidal rating, SETVI ([7]; rate 0.0320 kg/ha) | Postemergence herbicidal rating, SETVI ([7]; rate 0.0620 kg/ha) | CASOB preemergence herbicidal rating ([11]; Rate 0.1250 kg/ha) | GALAP preemergence herbicidal rating ([13]; Rate 0.2500 kg/ha) | ECHCG preemergence herbicidal rating ([14]; Rate 0.2500 kg/ha) | SETVI preemergence herbicidal rating ([15]; Rate 0.2500 kg/ha)
6.0: Postemergence herbicidal rating, AMBEL ([2]; rate 0.0620 kg/ha) | Postemergence herbicidal rating, CHEAL ([4]; rate 0.1250 kg/ha) | Postemergence herbicidal rating, IPOHE ([6]; rate 0.0320 kg/ha) | CASOB preemergence herbicidal rating ([11]; Rate 0.2500 kg/ha)
3.5: Postemergence herbicidal rating, ORYSAT ([8]; rate 0.0620 kg/ha) | Postemergence herbicidal rating, TRZAWR ([9]; rate 0.0620 kg/ha)

Cn1c(C(F)(F)F)cc(=O)n(-c2ccc3snc(C(SCCO)SCCO)c3c2)c1=O [Compound 33, 1,2-benzisothiazole-3-carboxaldehyde, 5-[3,6-dihydro-3-methyl-2,6-dioxo-4-(trifluoromethyl)-1(2H)-pyrimidinyl]-, 3-[bis(2-hydroxyethyl)dithioacetal]]
8.0: AMBEL preemergence herbicidal rating ([10]; Rate 0.2500 kg/ha)
2.0: AMBEL preemergence herbicidal rating ([10]; Rate 0.0620 kg/ha) | GALAP preemergence herbicidal rating ([13]; Rate 0.1250 kg/ha)
4.0: Postemergence herbicidal rating, AMBEL ([2]; rate 0.0320 kg/ha) | Postemergence herbicidal rating, SETVI ([7]; rate 0.0620 kg/ha) | Postemergence herbicidal rating, ORYSAT ([8]; rate 0.0320 kg/ha) | Postemergence herbicidal rating, TRZAWR ([9]; rate 0.0320 kg/ha) | AMBEL preemergence herbicidal rating ([10]; Rate 0.1250 kg/ha) | CHEAL preemergence herbicidal rating ([12]; Rate 0.0620 kg/ha) | herbicidal rating, MOOVA ([19]; rate 0.1250 kg/ha)
3.0: Postemergence herbicidal rating, CHEAL ([4]; rate 0.0320 kg/ha) | Postemergence herbicidal rating, GALAP ([5]; rate 0.0620 kg/ha) | GALAP preemergence herbicidal rating ([13]; Rate 0.0620 kg/ha) | ORYSAT preemergence herbicidal rating ([16]; Rate 0.1250 kg/ha) | herbicidal rating, CYPIR ([17]; rate 0.1250 kg/ha)
1.0: Postemergence herbicidal rating, CASOB ([3]; rate 0.0620 kg/ha) | Postemergence herbicidal rating, SETVI ([7]; rate 0.0320 kg/ha)
0.0: Postemergence herbicidal rating, CASOB ([3]; rate 0.0320 kg/ha) | Postemergence herbicidal rating, GALAP ([5]; rate 0.0320 kg/ha) | CASOB preemergence herbicidal rating ([11]; Rate 0.0620 kg/ha) | CASOB preemergence herbicidal rating ([11]; Rate 0.1250 kg/ha) | CASOB preemergence herbicidal rating ([11]; Rate 0.2500 kg/ha) | ECHCG preemergence herbicidal rating ([14]; Rate 0.0620 kg/ha) | ECHCG preemergence herbicidal rating ([14]; Rate 0.1250 kg/ha) | SETVI preemergence herbicidal rating ([15]; Rate 0.0620 kg/ha) | SETVI preemergence herbicidal rating ([15]; Rate 0.1250 kg/ha) | ORYSAT preemergence herbicidal rating ([16]; Rate 0.0620 kg/ha) | herbicidal rating, CYPIR ([17]; rate 0.0320 kg/ha) | herbicidal rating, CYPSE ([18]; rate 0.0320 kg/ha) | herbicidal rating, CYPSE ([18]; rate 0.1250 kg/ha) | herbicidal rating, MOOVA ([19]; rate 0.0320 kg/ha)
6.0: SETVI preemergence herbicidal rating ([15]; Rate 0.2500 kg/ha) | ORYSAT preemergence herbicidal rating ([16]; Rate 0.2500 kg/ha)
5.0: Postemergence herbicidal rating, ORYSAT ([8]; rate 0.0620 kg/ha) | Postemergence herbicidal rating, TRZAWR ([9]; rate 0.0620 kg/ha) | ECHCG preemergence herbicidal rating ([14]; Rate 0.2500 kg/ha)
7.0: Postemergence herbicidal rating, CHEAL ([4]; rate 0.0620 kg/ha) | Postemergence herbicidal rating, IPOHE ([6]; rate 0.0320 kg/ha) | CHEAL preemergence herbicidal rating ([12]; Rate 0.1250 kg/ha) | GALAP preemergence herbicidal rating ([13]; Rate 0.2500 kg/ha)
9.0: Postemergence herbicidal rating, ABUTH ([1]; rate 0.0320 kg/ha) | Postemergence herbicidal rating, ABUTH ([1]; rate 0.0620 kg/ha) | Postemergence herbicidal rating, AMBEL ([2]; rate 0.0620 kg/ha) | Postemergence herbicidal rating, IPOHE ([6]; rate 0.0620 kg/ha) | CHEAL preemergence herbicidal rating ([12]; Rate 0.2500 kg/ha)
